Source: patent US4431815A, “1-[3-(2,4-Dichlorophenyl)propyl]imidazole and salts thereof” (Burroughs Wellcome Co., priority 1983, dated 1984)
Like-named read-outs stand apart in the source and are kept apart here.

Legend:
[1] = tested on: enzymic conversion of the endoperoxides (PGG2 and PGH2) to thromboxane A2 by platelet microsomes; conditions: Moncada et al., Prostaglandins 1977; cited from earlier work
TXA2 synthetase = biological target: T1, TXA2 synthetase (Equus caballus, UniProt A0A9L0T8T9); assay: Inhibition of thromboxane (TXA2) synthetase in homogenised horse platelets, labelled arachidonic acid, thromboxane B2 measured by TLC; format: biochemical; conditions: horse platelet homogenate, pH 7.4
T1 construct: labelled arachidonic acid substrate, thromboxane B2 measured by TLC
T1 sequence (A0A9L0T8T9 2-534): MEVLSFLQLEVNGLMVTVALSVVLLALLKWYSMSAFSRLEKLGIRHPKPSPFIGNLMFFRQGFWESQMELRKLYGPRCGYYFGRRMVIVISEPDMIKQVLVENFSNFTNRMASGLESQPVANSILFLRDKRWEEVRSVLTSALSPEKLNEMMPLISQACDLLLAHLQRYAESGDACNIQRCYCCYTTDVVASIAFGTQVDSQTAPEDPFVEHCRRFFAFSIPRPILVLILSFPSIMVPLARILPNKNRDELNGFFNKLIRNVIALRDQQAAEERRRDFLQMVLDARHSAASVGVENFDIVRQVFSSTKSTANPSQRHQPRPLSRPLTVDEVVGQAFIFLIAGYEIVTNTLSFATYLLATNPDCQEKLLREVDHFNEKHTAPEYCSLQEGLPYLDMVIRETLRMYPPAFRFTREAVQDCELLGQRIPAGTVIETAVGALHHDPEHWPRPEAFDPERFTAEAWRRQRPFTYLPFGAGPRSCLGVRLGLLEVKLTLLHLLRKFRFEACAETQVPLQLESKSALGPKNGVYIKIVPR
Experimental: (§1) Horse platelets were prepared from whole horse blood by differential centrifugation. Approximately 10^6 platelets were homogenised in 1 ml 100 mM Tris buffer pH 7.4. Various concentrations of active compound were added and the reaction sets incubated for 5 minutes at ambient temperature. To each tube was added 20 nM of arachidonic acid containing 10^6 DPM of labelled arachidonic acid and the tubes incubated for 3 minutes at 37° C. in a shaking water bath. After incubation the radioactive products were extracted from the acidified aqueous phase with ethyl acetate and after concentration resolved by thin layer chromatography on silica gel with chloroform/methanol/acetic acid/water (90:8:1:0.8) as a developing solvent. The amount of thromboxane produced was measured by scraping off the radioactive zone corresponding to thromboxane B2 and estimating the radioactivity in a liquid scintillation counter.
The concentration of active compound to reduce the enzyme activity by 50% (ED50) was established.
By the method of Biological results Example 7 above the ED50 and selectivity values were obtained for the compounds set out in Table B.

PGE, PGF and PGD = assay: Selectivity: amount of PGE, PGF and PGD produced (anti-aggregating prostaglandins), horse platelets; format: biochemical; conditions: horse platelet homogenate
Experimental: as §1, with “Various concentrations of active compound were added and the reaction sets incubated for 5 minutes at ambient temperature.” left out
The greater the selectivity, the more of the anti-aggregating prostaglandins are produced.
The ED50 and Selectivity results are shown in Table A in which 0 indicates no selectivity; + low selectivity: ++ medium selectivity; +++ high selectivity, and ++++ exceptionally high selectivity.

platelet aggregation = assay: Inhibition of platelet aggregation in vivo
platelet clumps = assay: Disaggregation of platelet clumps
[2] = Table B, read-out: ED50 (concentration of active compound to reduce the enzyme activity by 50%) (converted)

Row | Structure (SMILES) | IC50 (TXA2 synthetase; [2]) [µM] | SELECTIVITY (PGE, PGF and PGD; Table B) | other results
1 | Cn1ccnc1 [1-methylimidazole] |  |  | inhibition of the enzymic conversion of endoperoxides to thromboxane A2 [1]: some degree of inhibition
2 | Cc1ccc(Cn2ccnc2)cc1C [1-(3,4-Dimethylbenzyl)imidazole] |  |  | SELECTIVITY (PGE, PGF and PGD; Table A): ++
3 | Clc1cccc(Cl)c1C=CCn1ccnc1 [1-[3-(2,6-Dichlorophenyl)prop-2-enyl]imidazole] |  |  | SELECTIVITY (PGE, PGF and PGD; Table A): +
4 | c1c[nH]cn1 [Imidazole] |  |  | inhibition of the enzymic conversion of endoperoxides to thromboxane A2 [1]: some degree of inhibition
5 | Cc1ccc(Cn2ccnc2)cc1 [1-(4-methylbenzyl)imidazole, 1-(4-Methylbenzyl)imidazole] | 174 | + | 
6 | Cc1cc(C)c(Cn2ccnc2)c(C)c1 [1-(2,4,6-Trimethylbenzyl)imidazole, 1-(2,4,6-trimethylbenzyl)imidazole] |  |  | SELECTIVITY (PGE, PGF and PGD; Table A): ++; inhibiting platelet aggregation in vivo (platelet aggregation): capable of inhibiting platelet aggregation in vivo; disaggregating platelet clumps (platelet clumps): capable of disaggregating platelet clumps
7 | c1ccc(Cn2ccnc2)cc1 [1-benzylimidazole, 1-Benzylimidazole] |  | +++ | IC50 (TXA2 synthetase; read-out: ED50 (concentration of active compound to reduce the enzyme activity by 50%), Table B): 31.6 µM; inhibiting platelet aggregation in vivo (platelet aggregation): capable of inhibiting platelet aggregation in vivo; disaggregating platelet clumps (platelet clumps): capable of disaggregating platelet clumps
8 | Cc1cccc(-n2ccnc2)c1C [1-(2,3-dimethylphenyl)imidazole] | ~17.4 | ++ | 
9 | Clc1ccc(CCCn2ccnc2)c(Cl)c1 [1-[3-(2,4-Dichlorophenyl)propyl]imidazole] | 2.35 | ++ | IC50 (TXA2 synthetase; Table A, read-out: ED50 (concentration of active compound to reduce the enzyme activity by 50%) (converted)): 1.96 µM; SELECTIVITY (PGE, PGF and PGD; Table A): ++; inhibiting platelet aggregation in vivo (platelet aggregation): capable of inhibiting platelet aggregation in vivo; disaggregating platelet clumps (platelet clumps): capable of disaggregating platelet clumps
10 | Clc1ccc(C=CCn2ccnc2)c(Cl)c1 [1-[3-(2,4-Dichlorophenyl)prop-2-enyl]imidazole] |  |  | SELECTIVITY (PGE, PGF and PGD; Table A): +
11 | Fc1ccc(Cn2ccnc2)cc1 [1-(4-fluorobenzyl)imidazole, 1-(4-Fluorobenzyl)imidazole] | 159 |  | 

Second part, led by results:

Row | IC50 (TXA2 synthetase; [2]) [µM] | Structure (SMILES) | SELECTIVITY (PGE, PGF and PGD; Table B) | other results
12 | ~57.7 | Nc1cccc(Cn2ccnc2)c1 [1-(3-aminobenzyl)imidazole, 1-(3-Aminobenzyl)imidazole] | ++ | 
13 | < 26.8 | CC(Cn1ccnc1)c1ccccc1 (stereo not drawn) [1-(2-phenylpropyl)imidazole, 1-(2-Phenylpropyl)imidazole] |  | 
14 | 0.499 | CC(C)c1ccc(Cn2ccnc2)cc1 [1-(4-i-propylbenzyl)imidazole, 1-(4-i-Propylbenzyl)imidazole] | 0 | 
15 | 19.4 | Brc1ccc(Cn2ccnc2)cc1 [1-(4-bromobenzyl)imidazole, 1-(4-Bromobenzyl)imidazole] |  | 
16 | 8.81 to 35.2 | Clc1ccc(Cn2ccnc2)c(Cl)c1 [1-(2,4-dichlorobenzyl)imidazole, 1-(2,4-Dichlorobenzyl)imidazole] |  | inhibiting platelet aggregation in vivo (platelet aggregation): capable of inhibiting platelet aggregation in vivo; disaggregating platelet clumps (platelet clumps): capable of disaggregating platelet clumps
17 | 92.3 | C(=Cc1ccccc1)Cn1ccnc1 [1-(3-phenylprop-2-enyl)imidazole, 1-(3-Phenylprop-2-enyl)imidazole] |  | 
18 | 2.6 | Clc1ccccc1Cn1ccnc1 [1-(2-chlorobenzyl)imidazole] | ++ | 
19 | 61.2 | Brc1cccc(Cn2ccnc2)c1 [1-(3-bromobenzyl)imidazole, 1-(3-Bromobenzyl)imidazole] | +++ | 
20 | 134 | c1ccc(CCCn2ccnc2)cc1 [1-(3-phenylpropyl)imidazole, 1-(3-Phenylpropyl)imidazole] | + | 
21 | 271 | O=[N+]([O-])c1cccc(Cn2ccnc2)c1 [1-(3-nitrobenzyl)imidazole, 1-(3-Nitrobenzyl)imidazole] |  | 
22 | 116 | c1ccc(CCn2ccnc2)cc1 [1-(2-phenylethyl)imidazole, 1-(2-Phenylethyl)imidazole] | + | 
